In ChEMBL document CHEMBL3856243, “Structure-Activity Relationships and Kinetic Studies of Peptidic Antagonists of CBX Chromodomains” (J Med Chem, 2016):
The source made the active and inactive calls. No cut-off for these calls is given here. Numbered stars: 1 amine (or outer) side, 2 acyl side, 3 side chain; on linkers, the order of the positions; unused ones are H or OH. Square brackets hold non-standard residues; d marks the D form. Peptide text beside a SMILES is read from it. * marks the point of attachment. X17 = CC(=O)N(CCCC[C@H](N[*:1])C(=O)[*:2])C1CC2CCC1C2; X5 = O=C([C@H](CCCCNC1C2CC3CC(C2)CC1C3)N[*:1])[*:2]; X3 = CN(C)C(NCCCC[C@H](N[*:1])C(=O)[*:2])=[N+](C)C; X15 = O=C([C@H](CCCCNC1CN2CCC1CC2)N[*:1])[*:2]; X14 = CCCN(CCCC[C@H](N[*:1])C(=O)[*:2])C(C)C; X8 = O=C([C@H](CCCCNC1CC2CCC1C2)N[*:1])[*:2]; Phe(4-CH2NH2) = NCc1ccc(C[C@H](N)C(=O)O)cc1; X19 = CN(CCCC[C@H](N[*:1])C(=O)[*:2])C1CNC1; Acetyl(2-naphthyl) = O=C(Cc1ccc2ccccc2c1)*; Lys(Et,iPr) = CCN(CCCC[C@H](N)C(=O)O)C(C)C; Benzoyl(4-tBu) = CC(C)(C)c1ccc(C(=O)*)cc1; Lys(Et2) = CCN(CC)CCCC[C@H](N)C(=O)O; Benzoyl(4-OMe) = COc1ccc(C(=O)*)cc1; Benzoyl(4-Me) = Cc1ccc(C(=O)*)cc1; X18 = O=C(Cc1c[nH]c2ccccc12)*; X2 = Cc1cccc(C(=O)*)c1; Boc = CC(C)(C)OC(=O)*; X1 = Cc1ccccc1C(=O)*; Bz = O=C(c1ccccc1)*

How the values were obtained:
[1] = biological target: T1, Chromobox protein homolog 7 (Homo sapiens) (UniProt O95931); test: Binding affinity to recombinant human C-terminal His-tagged CBX7 chromodomain (8 to 62 residues) expressed in Escherichia coli Rosetta BL21(DE3)pLysS by SPR method
T1 sequence (whole entry): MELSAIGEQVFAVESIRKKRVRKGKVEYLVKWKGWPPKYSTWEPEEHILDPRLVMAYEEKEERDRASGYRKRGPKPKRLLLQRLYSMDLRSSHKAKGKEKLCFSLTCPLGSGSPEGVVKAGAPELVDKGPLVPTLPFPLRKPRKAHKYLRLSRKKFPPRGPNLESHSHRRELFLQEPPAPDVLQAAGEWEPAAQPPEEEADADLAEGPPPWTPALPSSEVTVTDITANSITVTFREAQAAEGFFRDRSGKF

[2] = biological target: Chromobox protein homolog 5 (Homo sapiens, UniProt P45973); test: Antagonist activity at recombinant human N-terminal His-tagged CBX5 chromodomain (18 to 75 residues) expressed in Escherichia coli Rosetta BL21(DE3)pLysS using ARTKQTARK(Me3)STGGKAPRKQL-K(Biotin)-NH2 measured after 30 mins by AlphaScreen assay
[3] = biological target: T2, Chromobox protein homolog 7 (Homo sapiens, UniProt O95931); test: Antagonist activity at recombinant human C-terminal His-tagged CBX7 chromodomain (8 to 62 residues) expressed in Escherichia coli Rosetta BL21(DE3)pLysS using biotin-labeled UNC4195 measured after 30 mins by AlphaScreen assay
T2 sequence (O95931 whole entry): T1 sequence (whole entry)

[4] = biological target: T3, Chromobox protein homolog 8 (Homo sapiens, UniProt Q9HC52); test: Antagonist activity at recombinant human N-terminal His-tagged CBX8 chromodomain (8 to 61 residues) expressed in Escherichia coli Rosetta BL21(DE3)pLysS using biotin-labeled UNC4195 measured after 30 mins by AlphaScreen assay
T3 sequence (Q9HC52 whole entry): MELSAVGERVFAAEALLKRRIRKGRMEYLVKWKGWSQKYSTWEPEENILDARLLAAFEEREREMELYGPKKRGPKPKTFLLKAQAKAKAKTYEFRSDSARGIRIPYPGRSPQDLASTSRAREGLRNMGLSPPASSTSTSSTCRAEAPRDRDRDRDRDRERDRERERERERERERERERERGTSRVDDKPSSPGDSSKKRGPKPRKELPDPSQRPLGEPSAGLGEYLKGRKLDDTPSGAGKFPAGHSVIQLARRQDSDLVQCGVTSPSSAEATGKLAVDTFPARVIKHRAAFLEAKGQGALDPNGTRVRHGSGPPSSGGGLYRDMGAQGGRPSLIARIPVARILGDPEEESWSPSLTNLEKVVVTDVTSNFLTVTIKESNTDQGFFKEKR

[5] = biological target: T4, Chromodomain Y-like protein 2 (Homo sapiens, UniProt Q8N8U2); test: Antagonist activity at recombinant human C-terminal His-tagged CDYL2 chromodomain (1 to 75 residues) expressed in Escherichia coli Rosetta BL21(DE3)pLysS using biotin-labeled UNC4195 measured after 30 mins by AlphaScreen assay
T4 sequence (Q8N8U2 whole entry): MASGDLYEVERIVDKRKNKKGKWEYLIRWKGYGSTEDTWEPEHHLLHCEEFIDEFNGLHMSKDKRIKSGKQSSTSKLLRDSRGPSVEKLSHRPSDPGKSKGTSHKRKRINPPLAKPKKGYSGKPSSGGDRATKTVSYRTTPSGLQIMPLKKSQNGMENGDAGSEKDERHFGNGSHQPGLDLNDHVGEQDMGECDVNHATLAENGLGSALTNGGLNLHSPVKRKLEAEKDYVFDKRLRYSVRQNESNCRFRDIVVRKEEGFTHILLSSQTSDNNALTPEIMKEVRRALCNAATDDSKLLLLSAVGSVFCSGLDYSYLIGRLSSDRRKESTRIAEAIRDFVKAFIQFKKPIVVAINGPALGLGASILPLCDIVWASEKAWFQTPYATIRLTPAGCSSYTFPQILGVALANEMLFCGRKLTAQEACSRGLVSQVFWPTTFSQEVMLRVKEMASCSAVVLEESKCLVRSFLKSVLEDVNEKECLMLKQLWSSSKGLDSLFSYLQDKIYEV

[6] = biological target: T5, E3 SUMO-protein ligase CBX4 (Homo sapiens, UniProt O00257); test: Antagonist activity at recombinant human N-terminal His-tagged CBX4 chromodomain (8 to 65 residues) expressed in Escherichia coli Rosetta BL21(DE3)pLysS using biotin-labeled UNC4195 measured after 30 mins by AlphaScreen assay
T5 sequence (O00257 whole entry): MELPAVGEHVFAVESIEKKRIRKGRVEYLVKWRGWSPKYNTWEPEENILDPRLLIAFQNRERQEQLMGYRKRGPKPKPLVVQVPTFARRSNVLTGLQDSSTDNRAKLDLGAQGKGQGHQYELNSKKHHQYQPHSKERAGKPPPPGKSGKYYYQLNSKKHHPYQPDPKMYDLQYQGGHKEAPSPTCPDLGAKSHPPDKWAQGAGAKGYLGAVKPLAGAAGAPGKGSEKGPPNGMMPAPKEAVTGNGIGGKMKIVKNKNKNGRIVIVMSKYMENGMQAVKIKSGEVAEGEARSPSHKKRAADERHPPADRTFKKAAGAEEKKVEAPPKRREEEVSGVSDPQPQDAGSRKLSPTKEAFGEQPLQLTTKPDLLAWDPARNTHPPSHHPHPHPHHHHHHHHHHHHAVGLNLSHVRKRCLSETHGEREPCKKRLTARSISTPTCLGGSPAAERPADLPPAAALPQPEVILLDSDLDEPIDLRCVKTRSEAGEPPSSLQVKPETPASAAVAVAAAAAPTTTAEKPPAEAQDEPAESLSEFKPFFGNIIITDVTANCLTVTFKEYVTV

Sequence of Chromobox protein homolog 5 (P45973 whole entry, the tested form may be a part): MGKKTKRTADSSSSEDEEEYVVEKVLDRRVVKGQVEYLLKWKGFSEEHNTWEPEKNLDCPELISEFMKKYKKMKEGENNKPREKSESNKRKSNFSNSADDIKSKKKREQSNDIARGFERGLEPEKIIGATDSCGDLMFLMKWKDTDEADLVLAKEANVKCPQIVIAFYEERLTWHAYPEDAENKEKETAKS

Row | SMILES | Activity [1] | IC50 [2] | IC50 [3] | IC50 [4] | IC50 [5] | IC50 [6]
1 | CCN(CC)CCCC[C@H](NC(=O)[C@H](CC(C)C)NC(=O)[C@H](C)NC(=O)[C@H](Cc1ccccc1)NC(=O)c1cccc(C)c1)C(=O)N[C@@H](CO)C(=O)OC (X2-FAL[Lys(Et2)]S-OMe) | Active |  |  |  |  | 
2 | CCN(CC)CCCC[C@H](NC(=O)[C@H](CC(C)C)NC(=O)[C@H](C)NC(=O)[C@H](Cc1ccccc1)NC(=O)Cc1c[nH]c2ccccc12)C(=O)N[C@@H](CO)C(=O)OC (X18-FAL[Lys(Et2)]S-OMe) |  | > 60 µM | 1.7 µM | 15 µM | 0.11 µM | 
3 | CCN(CC)CCCC[C@H](NC(=O)[C@H](CC(C)C)NC(=O)[C@H](C)NC(=O)[C@H](Cc1ccccc1)NC(=O)CNC(=O)c1ccccc1)C(=O)N[C@@H](CO)C(=O)OC (Bz-GFAL[Lys(Et2)]S-OMe) |  |  |  |  |  | 46 µM
4 | COC(=O)[C@H](CO)NC(=O)[C@H](CCCCN(C)C1CNC1)NC(=O)[C@H](CC(C)C)NC(=O)[C@H](C)NC(=O)[C@H](Cc1ccccc1)NC(=O)CNC(=O)c1ccccc1 (Bz-GFAL[X19]S-OMe) |  | > 60 µM | > 60 µM | > 60 µM | 8.6 µM | > 60 µM
5 | COC(=O)[C@H](CO)NC(=O)[C@H](CCCCNC(N(C)C)=[N+](C)C)NC(=O)[C@H](CC(C)C)NC(=O)[C@H](C)NC(=O)[C@H](Cc1ccccc1)NC(=O)CNC(=O)c1ccccc1 (Bz-GFAL[X3]S-OMe) |  | > 60 µM | > 60 µM | > 60 µM |  | > 60 µM
6 | COC(=O)[C@H](CO)NC(=O)[C@H](CCCCN(C(C)=O)C1CC2CCC1C2)NC(=O)[C@H](CC(C)C)NC(=O)[C@H](C)NC(=O)[C@H](Cc1ccccc1)NC(=O)CNC(=O)c1ccccc1 (stereo partly specified) (Bz-GFAL[X17]S-OMe) |  | > 60 µM | > 60 µM | > 60 µM | 38 µM | > 60 µM
7 | CCN(CC)CCCC[C@H](NC(=O)[C@H](CC(C)C)NC(=O)[C@H](C)NC(=O)[C@H](Cc1ccccc1)NC(=O)c1ccc(C)cc1)C(=O)N[C@@H](CO)C(=O)OC ({Benzoyl(4-Me)}-FAL[Lys(Et2)]S-OMe) | Active |  |  |  |  | 
8 | COC(=O)[C@H](CO)NC(=O)[C@H](CCCCNC1C2CC3CC(C2)CC1C3)NC(=O)[C@H](CC(C)C)NC(=O)[C@H](C)NC(=O)[C@H](Cc1ccccc1)NC(=O)CNC(=O)c1ccccc1 (stereo partly specified) (Bz-GFAL[X5]S-OMe) |  | > 60 µM | > 60 µM | > 60 µM | 14 µM | > 60 µM
9 | CCCN(CCCC[C@H](NC(=O)[C@H](CC(C)C)NC(=O)[C@H](C)NC(=O)[C@H](Cc1ccccc1)NC(=O)c1ccc(C(C)(C)C)cc1)C(=O)N[C@@H](CO)C(=O)OC)C(C)C ({Benzoyl(4-tBu)}-FAL[X14]S-OMe) |  | > 60 µM | 0.032 µM |  | 0.11 µM | 0.062 µM
10 | CCN(CCCC[C@H](NC(=O)[C@H](CC(C)C)NC(=O)[C@H](C)NC(=O)[C@H](Cc1ccccc1)NC(=O)c1ccc(C(C)(C)C)cc1)C(=O)N[C@@H](CO)C(=O)OC)C(C)C ({Benzoyl(4-tBu)}-FAL[Lys(Et,iPr)]S-OMe) |  | > 60 µM |  | 1 µM |  | 
11 | CCN(CC)CCCC[C@H](NC(=O)[C@H](CC(C)C)NC(=O)[C@H](C)NC(=O)[C@H](Cc1ccccc1)NC(=O)c1ccccc1C)C(=O)N[C@@H](CO)C(=O)OC (X1-FAL[Lys(Et2)]S-OMe) | Active |  |  |  |  | 
12 | CCN(CC)CCCC[C@H](NC(=O)[C@H](CC(C)C)NC(=O)[C@H](C)NC(=O)[C@H](Cc1ccc(CNC(=O)OC(C)(C)C)cc1)NC(=O)c1ccc(C(C)(C)C)cc1)C(=O)N[C@@H](CO)C(=O)OC ({Benzoyl(4-tBu)}-[Phe(4-CH2NH2)](Boc)AL[Lys(Et2)]S-OMe) |  | 44 µM | 0.056 µM | 1.7 µM | 0.16 µM | 
13 | CCN(CC)CCCC[C@H](NC(=O)[C@H](CC(C)C)NC(=O)[C@H](C)NC(=O)[C@H](Cc1ccccc1)NC(=O)Cc1ccc2ccccc2c1)C(=O)N[C@@H](CO)C(=O)OC ({Acetyl(2-naphthyl)}-FAL[Lys(Et2)]S-OMe) |  | > 60 µM | 1.1 µM | 24 µM | 0.084 µM | 5.2 µM
14 | CCN(CC)CCCC[C@H](NC(=O)[C@H](CC(C)C)NC(=O)[C@H](C)NC(=O)[C@H](Cc1ccccc1)NC(=O)c1ccc(OC)cc1)C(=O)N[C@@H](CO)C(=O)OC ({Benzoyl(4-OMe)}-FAL[Lys(Et2)]S-OMe) |  | 12 µM | 0.25 µM | 3.3 µM | 0.26 µM | 0.75 µM
15 | CCN(CC)CCCC[C@H](NC(=O)[C@H](CC(C)C)NC(=O)[C@H](C)NC(=O)[C@H](Cc1ccc(CN)cc1)NC(=O)c1ccc(C(C)(C)C)cc1)C(=O)N[C@@H](CO)C(=O)OC ({Benzoyl(4-tBu)}-[Phe(4-CH2NH2)]AL[Lys(Et2)]S-OMe) |  | 53 µM | 0.063 µM | 2.4 µM | 0.075 µM | 
16 | COC(=O)[C@H](CO)NC(=O)[C@H](CCCCNC1CC2CCC1C2)NC(=O)[C@H](CC(C)C)NC(=O)[C@H](C)NC(=O)[C@H](Cc1ccccc1)NC(=O)CNC(=O)c1ccccc1 (stereo partly specified) (Bz-GFAL[X8]S-OMe) |  | > 60 µM | 51 µM | > 60 µM | 5 µM | > 60 µM
17 | COC(=O)[C@H](CO)NC(=O)[C@H](CCCCNC1CN2CCC1CC2)NC(=O)[C@H](CC(C)C)NC(=O)[C@H](C)NC(=O)[C@H](Cc1ccccc1)NC(=O)CNC(=O)c1ccccc1 (stereo partly specified) (Bz-GFAL[X15]S-OMe) |  | > 60 µM | > 60 µM | > 60 µM | 24 µM | > 60 µM
